Assay results: patent US20150025120A1, “PYRAZOLE-ALCOHOL COMPOUNDS AND PHARMACEUTICAL USE THEREOF” (JAPAN TOBACCO INC., priority 2013, published 2015)

Experiments:
[1] = Metabolic stability test in liver microsome (rat); format: in vitro ADME
[2] = target: T1, human PDHK2 (hPDHK2) (Homo sapiens, UniProt Q15119); assay: Inhibitory action of PDHK2 activity in vitro (residual PDH activity after kinase reaction); format: biochemical
T1 construct: made in house; host or cells: Escherichia coli BL21(DE3), pET17b
Method: The inhibitory action of PDHK activity was assessed indirectly by measuring the residual PDH activity after kinase reaction in the presence of a test compound.
In the case of human PDHK2 (hPDHK2, Genbank Accession No. BC040478.1), modified hPDHK2 cDNA wherein FLAG-Tag sequence was added to the N terminus of hPDHK2 cDNA clone (pReceiver-M01/PDK2-GeneCopoeia) was prepared by PCR and cloned into a vector (pET17b-Novagen). The recombinant construct was transformed into Escherichia coli (DH5α-TOYOBO). The recombinant clones were identified, and plasmid DNA was isolated and subjected to the DNA sequence analysis. One clone which had the expected nucleic acid sequence was selected for expression work.
For expression of hPDHK2 activity, Escherichia coli strain BL21(DE3) cells (Novagen) were transformed with the pET17b vector containing modified hPDHK2 cDNA. The Escherichia coli were grown to an optical density 0.6 ([…]) at 30° C. Protein expression was induced by the addition of 500 μmol/L isopropyl-β-thiogalactopyranoside. The Escherichia coli were cultured at 30° C. for 5 hr and harvested by centrifugation. Resuspension of the Escherichia coli paste was disrupted by a microfluidizer. FLAG-Tagged protein was purified using FLAG affinity gel. The gel was washed with 20 mmol/L HEPES-NaOH, 500 mmol/L sodium chloride, 1% ethylene glycol, and 0.1% Pluronic F-68 (pH 8.0), and the binding protein was eluted with 20 mmol/L HEPES-NaOH, 100 μg/mL FLAG peptide, 500 mmol/L sodium chloride, 1% ethylene glycol, and 0.1% Pluronic F-68 (pH 8.0). The eluted fractions containing FLAG-Tagged protein were pooled, dialyzed against 20 mmol/L HEPES-NaOH, 150 mmol/L sodium chloride, 0.5 mmol/L EDTA, 1% ethylene glycol, and 0.1% Pluronic F-68 (pH 8.0), and preserved at −80° C.
0.05 U/mL PDH and 0.8 μg/mL hPDHK2 were mixed in a buffer (50 mmol/L 3-morpholinopropanesulfonic acid (pH 7.0), 20 mmol/L dipotassium hydrogen phosphate, 60 mmol/L potassium chloride, 2 mmol/L magnesium chloride, 0.4 mmol/L EDTA, and 0.2% Pluronic F-68, 2 mmol/L dithiothreitol), and the mixture was incubated at 4° C. overnight to obtain a PDH/hPDHK2 complex. The test compounds were diluted with DMSO. […] DMSO (1.5 μL) was added to control wells instead of the test compound. […] The mixture was incubated at room temperature for 90 min, and the residual PDH activity was measured. The absorbance at 340 nm before and after PDH reaction was measured using a microplate reader to detect NADH produced by the PDH reaction. The hPDHK2 inhibition rate (%) of the test compound was calculated from the formula [{(PDH activity of test compound−PDH activity of control)/PDH activity of blank−PDH activity of control)}×100].

Row | stability in liver microsome (residual ratio %) ([1]; 10 min) [%] | stability in liver microsome (residual ratio %) ([1]; 60 min) [%] | IC50 [2] [nM] | Compound
1 | 101.1 | 92.1 | – | Cn1cc(-c2cc(OCC(C)(C)O)cc3c2-c2ccccc2[C@]3(O)C(F)(F)F)cn1 [compound (B), (9R)-2-(2-Hydroxy-2-methylpropoxy)-4-(1-methyl-1H-pyrazol-4-yl)-9-(trifluoromethyl)-9H-fluoren-9-ol, reference compound]
2 | 98.9 | 93.5 | 6.6 | CC(C)(O)CCCOc1cc(-c2cnn(CC(C)(C)O)c2)c2c(c1)[C@@](O)(C(F)(F)F)c1ccccc1-2 [compound (4), (9R)-2-(4-hydroxy-4-methylpentyloxy)-4-[1-(2-hydroxy-2-methylpropyl)-1H-pyrazol-4-yl]-9-(trifluoromethyl)-9H-fluoren-9-ol]
3 | 24.8 | 0.0 | – | NC(=O)Cn1cc(-c2cc(OCCC34CC5CC(CC(O)(C5)C3)C4)cc3c2-c2ccccc2[C@]3(O)C(F)(F)F)cn1 [compound (A), 2-(4-{(9R)-9-Hydroxy-2-[2-(3-hydroxyadamantan-1-yl)ethoxy]-9-(trifluoromethyl)-9H-fluoren-4-yl}-1H-pyrazol-1-yl)acetamide, reference compound]
4 | 102.0 | 95.4 | 9.2 | C[C@H](O)COc1cc(-c2cnn(CC(C)(C)O)c2)c2c(c1)[C@@](O)(C(F)(F)F)c1ccccc1-2 [compound (1), (9R)-4-[1-(2-hydroxy-2-methylpropyl)-1H-pyrazol-4-yl]-2-((2S)-2-hydroxypropoxy)-9-(trifluoromethyl)-9H-fluoren-9-ol]
5 | 95.1 | 93.6 | 9.7 | CC(C)(O)COc1cc(-c2cnn(CC(C)(C)O)c2)c2c(c1)[C@@](O)(C(F)(F)F)c1ccccc1-2 [compound (2), (9R)-2-(2-hydroxy-2-methylpropoxy)-4-[1-(2-hydroxy-2-methylpropyl)-1H-pyrazol-4-yl]-9-(trifluoromethyl)-9H-fluoren-9-ol]
